Measurements reported in patent publication US20150133434A1, “Compositions and Methods for Reactivating Latent Immunodeficiency Virus” (priority 2012, published 2015).
Entries after “also recorded” stand apart in the source; their conditions may differ.

How the values were obtained:
[1] = tested on: HIV LTR-GFP in J-Lat A72 cells; assay: JQ1 response in A72 cells after shRNA knockdown (cyclin T1, BRD2, BRD4), flow cytometry of GFP; format: cell-based
Experimental: ShRNA-expressing lentiviral vectors were purchased from Open Biosystems. The plasmids TRCN0000006308 and TRCN0000006310 were used to deplete BRD2, plasmids TRCN0000021424 and TRCN0000021428 were used to deplete BRD4, and plasmids TRCN0000013673 and TRCN0000013675 were used to deplete cyclin T1. The pLKO.1 vector containing scramble shRNA was used as control. […]. J-Lat A72 cells (containing a LTR-GFP construct) were spininfected with virus (1 ng of p24 per 10^6 cells) containing shRNAs against BRD2, BRD4, cyclin T1 or nontargeting control shRNAs and were selected with puromycin (2 μg/ml; Sigma) (Naldini L, et al., Science 1996; 272:263-7). After 4 days of selection, cells were treated with the indicated concentration of drugs. The percentage of GFP^+ cells was determined after 18 h using a MACSQuant VYB FACS analyzer (Miltenyi Biotech GmbH). Cell viability was monitored by forward and side scatter analysis. Analysis was conducted on 3×10,000 live cells per condition, and all experiments were independently repeated at least three times. Data were analyzed using FlowJo 9.4 (Tree Star).
As transcription elongation at the HIV promoter uniquely depends on P-TEFb, whether the JQ1 effect in latent cells requires intact P-TEFb was determined. Short hairpin RNAs (shRNAs) directed against cyclin T1, an important component of P-TEFb, were introduced into A72 cells with lentiviral vectors. Knockdown of cyclin T1 yielded lower basal levels in GFP^+ cells than control cells expressing nontargeting shRNAs (FIG. 25A).
To test the functional relevance of BET proteins in HIV latency, lentiviral shRNA knockdown studies of endogenous BRD2 and BRD4 proteins were performed in A72 cells lacking Tat. BRD2 is a close relative of BRD4, but lacks a C-terminal PID domain. […] BRD2 binds JQ1 and other BET inhibitors, albeit with lower binding affinities than BRD4.
(A) A72 cells were infected with virus containing shRNA constructs targeting cyclin T1 or a nontargeting control. Knockdown of cyclin T1 protein levels are shown by immunoblotting with cyclin T1 or the control α-tubulin antibody. At 4 days after infection, cells were treated with JQ1 or DMSO at the indicated concentrations for 18 h and analyzed by flow cytometry. […] Average (±SD) of three experiments is shown. (B) A72 cells were infected with virus containing shRNA constructs targeting BRD2, BRD4 or a nontargeting control. At 4 days after infection, cells were treated with JQ1 or DMSO at the indicated concentrations for 18 h and examined by flow cytometry. […] Results represent average (±SD) of three experiments. Knockdown of BRD2 and BRD4 protein levels were confirmed by immunoblotting with BRD2 and BRD4 antibodies or the control α-tubulin. All treatments in (A) and (B) on the X axis are in μM.

[2] = tested on: latent LTR-Tat-IRES-GFP construct in J-Lat A2 cells; assay: J-Lat A2 cells (LTR-Tat-IRES-GFP), flow cytometry of GFP; format: cell-based, HIV-1
Experimental: (§1) HEK293T and Jurkat cells were obtained from the American Type Culture Collection. J-Lat (clones A2 and A72) cell lines were described. HEK293T cells were cultured in DMEM supplemented with 10% FBS, 1% L-glutamine and 1% penicillin-streptomycin (Life Technologies). Jurkat and J-Lat cells were cultured in RPMI supplemented with 10% FBS, 1% L-glutamine, and 1% penicillin-streptomycin. TNFα (Sigma-Aldrich) was used at concentrations of 0.25 or 1 ng/ml. Human αCD3 and αCD28 (BD Biosciences) were used at concentrations of 3 and 1 μg/ml, respectively. Prostratin (Sigma) was used at a suboptimal concentration of 0.5 μM, and SAHA (NCI Chemical Carcinogen Repository, Midwest Research Institute) was used at 2.5 μM.
(§2) To determine if BET inhibition specifically activates Tat-dependent transcription, a J-Lat cell line was utilized that harbored a latent lentiviral construct expressing Tat with GFP from the HIV LTR (clone A2; LTR-Tat-IRES-GFP). […] Stimulation with JQ1 yielded up to ninefold more GFP-expressing cells than control-treated cells, and a 22-fold increase was observed when cells were co-treated with JQ1 and low doses of TNFα (FIG. 21A). […] Here, an up to 22-fold increase in GFP^+ cells resulted from JQ1 treatment alone and a 45-fold increase when TNFα was added with JQ1 (FIG. 21B). Both cell lines were also treated with prostratin and SAHA (FIG. 27).
(§3) Two latent J-Lat cell lines A2 (containing a LTR-Tat-IRES-GFP construct) or A72 (containing a LTR-GFP construct) were treated with JQ1 or (R)-JQ1 in combination with TNFα or control at the indicated concentrations for 18 h, followed by flow cytometry analysis. […] Data represent average (±SD) of three independent experiments. All treatments in (A) and (B) on the X axis are in μM.

[3] = tested on: latent LTR-GFP construct in J-Lat A72 cells; assay: J-Lat A72 cells (LTR-GFP lacking Tat), flow cytometry of GFP; format: cell-based, HIV-1
Experimental: as §1, §2, §3

[4] = tested on: latent HIV-1 in Bcl-2-transduced resting CD4+ T cells; format: cell-based; conditions: 24-72 h, average of two donors

Cc1sc2c(c1C)C(c1ccc(Cl)cc1)=N[C@@H](CC(=O)OC(C)(C)C)c1nnc(C)n1-2 [JQ1, tert-Butyl 2-((6S)-4-(4-chlorophenyl)-2,3,9-trimethyl-6H-thieno[3,2-f][1,2,4]triazolo[4,3-a][1,4]diazepin-6-yl)acetate]
activation of the HIV LTR in response to JQ1 ([1]; BRD2 knockdown cells): twofold
response to JQ1 ([1]; BRD4 knockdown cells): not affected
activation of the HIV LTR in response to JQ1 ([1]; control cells (nontargeting shRNA)): 3.3 fold
cells responding with GFP expression to JQ1, relative to control cells ([1]; cyclin T1 knockdown cells): half as many cells responded
activation of HIV transcription (GFP) ([2]; 18 h): activated HIV transcription in a dose-dependent manner; also recorded: reactivated HIV-1 in a dose-dependent manner; also recorded: increased GFP expression
effect of adding SAHA to JQ1 ([2]; FIG. 27): only a very modest increase
effect of adding prostratin to JQ1 ([2]; FIG. 27): enhanced the JQ1 effect
GFP-expressing cells relative to control-treated cells ([2]; JQ1 alone): up to ninefold
increase in GFP-expressing cells ([2]; JQ1 with low doses of TNFα): 22 fold
activation of HIV transcription (GFP) ([3]; 18 h): increased GFP expression; also recorded: reactivated HIV-1 in a dose-dependent manner
effect of adding SAHA to JQ1 ([3]; FIG. 27): only a very modest increase
effect of adding prostratin to JQ1 ([3]; FIG. 27): enhanced the JQ1 effect
increase in GFP+ cells ([3]; JQ1 alone): up to 22 fold
increase in GFP+ cells ([3]; TNFα added with JQ1): 45 fold
reactivation of latent HIV-1 relative to costimulation with αCD3 and αCD28 antibodies [4]: ~14%
